Experimental data: US10098902B2, “Arginase inhibitors as therapeutics” (Mars, Incorporated, priority 2010, dated 2018)

Key:
human arginase I (ARG I) = human arginase I (ARG I) (Homo sapiens (Human), UniProt P05089); assay: Inhibition of arginase I, spectrophotometric urea assay at 530 nm; format: biochemical; conditions: potency rank 1-5; pH 7.4, 37° C., 60 minutes
Experimental: (§1) Inhibition of arginase I (ARG I) and arginase II (ARG II) by Formula I or Formula II compounds is followed spectrophotometrically at 530 nm. The compound to be tested was dissolved in DMSO at an initial concentration 50-fold greater than its final concentration in the cuvette. 10 μl of the stock solution was diluted in 90 μl of the assay buffer that comprises 0.1M sodium phosphate buffer containing 130 mM NaCl, pH 7.4, to which is added ovalbumin (OVA) at a concentration of 1 mg/ml. Solutions of arginase I and II were prepared in 100 mM sodium phosphate buffer, pH 7.4 containing 1 mg/ml of OVA to give an arginase stock solution at a final concentration of 100 ng/ml.
(§2) To each well of a 96-well microtiter plate was added 40 μl of enzyme, 10 μl of an inventive compound and 10 μl of enzyme substrate (L-arginine+manganese sulfate). For wells that were used as positive controls, only the enzyme and its substrate were added, while wells used as negative controls contained only manganese sulfate.
(§3) After incubating the microtiter plate at 37° C. for 60 minutes, 150 μl of a urea reagent obtained by combining equal proportions (1:1) of reagents A and B is added to each well of the microtiter plate to stop the reaction. The urea reagent is made just before use by combining Reagent A (10 mM o-phthaldialdehyde, and 0.4% polyoxyethylene (23) lauryl ether (w/v) in 1.8 M sulfuric acid) with Reagent B (1.3 mM primaquine diphosphate, 0.4% polyoxyethylene (23) lauryl ether (w/v), 130 mM boric acid in 3.6 mM sulfuric acid). After quenching the reaction mixture, the microtiter plate is allowed to stand for an additional 10 minutes at room temperature to allow the color to develop. The inhibition of arginase was computed by measuring the optical density (OD) of the reaction mixture at 530 nm and normalizing the OD value to percent inhibition observed in the control. The normalized OD is then used to generate a dose-response curve by plotting the normalized OD values against log [concentration] and using regression analysis to compute the IC50 values.

[1] = target: human arginase II (ARG II) (Homo sapiens (Human), UniProt P78540); assay: Inhibition of arginase II, spectrophotometric urea assay at 530 nm; format: biochemical; conditions: potency rank 1-5; pH 7.4, 37° C., 60 minutes
human arginase II (ARG II), sequence (P78540 23-354): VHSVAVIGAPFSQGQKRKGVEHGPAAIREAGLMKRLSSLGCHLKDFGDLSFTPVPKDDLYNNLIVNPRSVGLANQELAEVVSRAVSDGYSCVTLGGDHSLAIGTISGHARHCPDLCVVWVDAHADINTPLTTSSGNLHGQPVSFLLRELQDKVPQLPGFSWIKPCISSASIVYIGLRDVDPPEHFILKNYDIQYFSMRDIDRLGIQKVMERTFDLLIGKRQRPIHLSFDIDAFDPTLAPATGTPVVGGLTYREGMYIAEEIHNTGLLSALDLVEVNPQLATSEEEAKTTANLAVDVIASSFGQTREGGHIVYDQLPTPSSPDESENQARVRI
Experimental: as §1, §2, §3

human arginase I (ARG I), sequence (P05089 whole entry): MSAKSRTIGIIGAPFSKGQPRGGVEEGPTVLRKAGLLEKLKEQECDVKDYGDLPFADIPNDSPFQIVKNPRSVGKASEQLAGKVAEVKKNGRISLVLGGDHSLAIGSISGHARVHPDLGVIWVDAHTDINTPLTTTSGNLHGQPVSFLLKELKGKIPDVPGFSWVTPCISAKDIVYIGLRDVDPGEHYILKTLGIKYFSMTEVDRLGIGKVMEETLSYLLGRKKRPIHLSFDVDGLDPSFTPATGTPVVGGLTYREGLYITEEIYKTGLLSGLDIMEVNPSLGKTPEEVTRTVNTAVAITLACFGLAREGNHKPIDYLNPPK

SMILES | IC50 (human arginase I (ARG I)) [nM] | IC50 [1] [nM]
N[C@@]1(C(=O)O)CN(CCN2CCCCC2)C[C@@H]1CCCB(O)O [Example 33, (3R,4S)-3-amino-4-(3-boronopropyl)-1-(2-(piperidin-1-yl)ethyl)pyrrolidine-3-carboxylic acid] | 0.1 to 250 | 251 to 1000
Cn1ccnc1CN1C[C@H](CCCB(O)O)[C@](N)(C(=O)O)C1 [Example 31, (3R,4S)-3-amino-4-(3-boronopropyl)-1-((1-methyl-1H-imidazol-2-yl)methyl)pyrrolidine-3-carboxylic acid] | 0.1 to 250 | 251 to 1000
N[C@@]1(C(=O)O)CN(Cc2ccccn2)C[C@@H]1CCCB(O)O [Example 29, (3R,4S)-3-amino-4-(3-boronopropyl)-1-(pyridin-2-ylmethyl)pyrrolidine-3-carboxylic acid] | 1000 to 2000 | 1000 to 2000
N[C@@]1(C(=O)O)CCNC[C@@H]1CCCB(O)O [Example 7, (3S,4S)-4-amino-3-(3-boronopropyl)piperidine-4-carboxylic acid] | 251 to 1000 | 251 to 1000
N[C@@]1(C(=O)O)CNC[C@H]1CCCB(O)O [Example 9, (3R,4R)-3-amino-4-(3-boronopropyl)pyrrolidine-3-carboxylic acid] | 1000 to 2000 | 1000 to 2000
N[C@@]1(C(=O)O)CN(C2CCNC2)C[C@@H]1CCCB(O)O (stereo partly drawn) [Example 27, (3R,4S)-3-amino-4-(3-boronopropyl)-1,3′-bipyrrolidine-3-carboxylic acid] | 0.1 to 250 | 0.1 to 250
N[C@@]1(C(=O)O)CN(C2CCCNC2)C[C@@H]1CCCB(O)O (stereo partly drawn) [Example 28, (3R,4S)-3-amino-4-(3-boronopropyl)-1-(piperidin-3-yl)pyrrolidine-3-carboxylic acid] | 0.1 to 250 | 251 to 1000

Continued, values first:

IC50 (human arginase I (ARG I)) [nM] | IC50 [1] [nM] | SMILES
0.1 to 250 | 0.1 to 250 | N[C@@]1(C(=O)O)CN(CCN2CCCC2)C[C@@H]1CCCB(O)O [Example 38, (3R,4S)-3-amino-4-(3-boronopropyl)-1-(2-(pyrrolidin-1-yl)ethyl)pyrrolidine-3-carboxylic acid]
0.1 to 250 | 0.1 to 250 | N[C@@]1(C(=O)O)CN(CC2Cc3c(Cl)cc(Cl)cc3CN2)C[C@@H]1CCCB(O)O (stereo partly drawn) [Example 59, (3R,4S)-3-amino-4-(3-boronopropyl)-1-((5,7-dichloro-1,2,3,4-tetrahydroisoquinolin-3-yl)methyl)pyrrolidine-3-carboxylic acid]
251 to 1000 | 251 to 1000 | N[C@@]1(C(=O)O)CN(C(=O)c2ccc(F)cc2)C[C@@H]1CCCB(O)O (racemic) [Example 46, (3R,4S)-3-amino-4-(3-boronopropyl)-1-(4-fluorobenzoyl)pyrrolidine-3-carboxylic acid]
0.1 to 250 | 251 to 1000 | CCN(CC)CCN1C[C@H](CCCB(O)O)[C@](N)(C(=O)O)C1 [Example 34, (3R,4S)-3-amino-4-(3-boronopropyl)-1-(2-(diethylamino)ethyl)pyrrolidine-3-carboxylic acid]
0.1 to 250 | 0.1 to 250 | NC(Cc1ccccc1)CN1C[C@H](CCCB(O)O)[C@](N)(C(=O)O)C1 (mixture of isomers) [Example 57, (3R,4S)-3-amino-1-(2-amino-3-phenylpropyl)-4-(3-boronopropyl)pyrrolidine-3-carboxylic acid]
0.1 to 250 | 0.1 to 250 | N[C@@]1(C(=O)O)CN(CCNCc2ccc(Cl)c(Cl)c2)C[C@@H]1CCCB(O)O [Example 41, (3R,4S)-3-amino-4-(3-boronopropyl)-1-(2-(3,4-dichlorobenzylamino)ethyl)pyrrolidine-3-carboxylic acid]
0.1 to 250 | 0.1 to 250 | N[C@@]1(C(=O)O)CN(CC2Cc3ccc(C(F)(F)F)cc3CN2)C[C@@H]1CCCB(O)O (stereo partly drawn) [Example 55, (3R,4S)-3-amino-4-(3-boronopropyl)-1-((7-(trifluoromethyl)-1,2,3,4-tetrahydroisoquinolin-3-yl)methyl)pyrrolidine-3-carboxylic acid]
